Experimental findings from ChEMBL document CHEMBL1139808, “Structure-activity relationship study of novel NR2B-selective antagonists with arylamides to avoid reactive metabolites formation” (Bioorg Med Chem Lett, 2007) are described below.

A value given as a limit tells only on which side of the number the result lay.

Data set [1] deals with Glutamate receptor ionotropic, NMDA 2B (Rattus norvegicus, UniProt P35439+Q00960). The experiment in a line: Displacement of [3H]racemic CP-101606 from rat NR2B receptor in P2 membrane. Type of data set: cell membranes.
Chain of Glutamate receptor ionotropic, NMDA 2B (Q00960 whole entry, one chain of several): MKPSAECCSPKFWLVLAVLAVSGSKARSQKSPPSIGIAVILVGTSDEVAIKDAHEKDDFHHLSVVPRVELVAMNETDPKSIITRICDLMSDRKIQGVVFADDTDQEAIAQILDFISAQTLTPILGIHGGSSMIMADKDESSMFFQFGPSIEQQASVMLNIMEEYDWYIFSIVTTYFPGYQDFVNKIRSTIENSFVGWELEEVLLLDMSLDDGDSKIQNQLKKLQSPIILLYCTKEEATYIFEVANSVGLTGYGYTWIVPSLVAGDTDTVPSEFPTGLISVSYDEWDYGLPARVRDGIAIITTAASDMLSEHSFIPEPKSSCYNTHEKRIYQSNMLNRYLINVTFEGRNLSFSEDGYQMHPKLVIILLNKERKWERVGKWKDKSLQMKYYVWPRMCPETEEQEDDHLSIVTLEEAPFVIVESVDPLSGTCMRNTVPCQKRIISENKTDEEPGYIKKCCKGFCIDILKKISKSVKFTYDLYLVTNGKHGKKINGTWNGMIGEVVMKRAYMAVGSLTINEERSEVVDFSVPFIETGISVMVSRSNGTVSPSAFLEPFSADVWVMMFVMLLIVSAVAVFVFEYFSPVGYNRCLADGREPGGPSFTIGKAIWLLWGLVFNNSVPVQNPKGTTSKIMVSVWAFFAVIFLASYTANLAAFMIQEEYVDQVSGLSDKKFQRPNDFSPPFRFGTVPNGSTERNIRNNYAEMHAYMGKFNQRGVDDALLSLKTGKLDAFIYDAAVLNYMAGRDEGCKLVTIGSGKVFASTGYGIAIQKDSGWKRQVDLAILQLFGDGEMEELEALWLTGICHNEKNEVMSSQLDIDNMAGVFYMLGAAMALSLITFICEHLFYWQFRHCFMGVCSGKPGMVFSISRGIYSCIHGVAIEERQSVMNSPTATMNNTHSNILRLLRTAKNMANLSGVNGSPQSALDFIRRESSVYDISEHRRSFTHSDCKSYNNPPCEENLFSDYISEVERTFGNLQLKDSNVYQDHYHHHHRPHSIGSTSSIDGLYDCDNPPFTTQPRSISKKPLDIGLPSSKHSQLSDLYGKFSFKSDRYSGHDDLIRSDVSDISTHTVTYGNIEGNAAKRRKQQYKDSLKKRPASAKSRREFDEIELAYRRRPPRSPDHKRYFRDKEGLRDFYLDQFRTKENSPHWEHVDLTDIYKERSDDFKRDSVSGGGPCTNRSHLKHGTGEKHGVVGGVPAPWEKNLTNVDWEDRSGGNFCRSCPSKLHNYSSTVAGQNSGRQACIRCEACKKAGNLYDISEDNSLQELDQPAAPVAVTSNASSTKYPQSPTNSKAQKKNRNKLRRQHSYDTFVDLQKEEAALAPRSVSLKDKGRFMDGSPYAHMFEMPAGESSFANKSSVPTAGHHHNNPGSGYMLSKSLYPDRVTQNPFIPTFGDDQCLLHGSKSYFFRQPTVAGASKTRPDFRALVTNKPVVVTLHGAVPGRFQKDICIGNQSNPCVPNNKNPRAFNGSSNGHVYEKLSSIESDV
Data set [2] deals with hERG (Homo sapiens, UniProt Q12809). The data set can be described thus: Inhibition of hERG current at 10 uM. The data set is classed as toxicity.
Chain of hERG (Q12809 whole entry): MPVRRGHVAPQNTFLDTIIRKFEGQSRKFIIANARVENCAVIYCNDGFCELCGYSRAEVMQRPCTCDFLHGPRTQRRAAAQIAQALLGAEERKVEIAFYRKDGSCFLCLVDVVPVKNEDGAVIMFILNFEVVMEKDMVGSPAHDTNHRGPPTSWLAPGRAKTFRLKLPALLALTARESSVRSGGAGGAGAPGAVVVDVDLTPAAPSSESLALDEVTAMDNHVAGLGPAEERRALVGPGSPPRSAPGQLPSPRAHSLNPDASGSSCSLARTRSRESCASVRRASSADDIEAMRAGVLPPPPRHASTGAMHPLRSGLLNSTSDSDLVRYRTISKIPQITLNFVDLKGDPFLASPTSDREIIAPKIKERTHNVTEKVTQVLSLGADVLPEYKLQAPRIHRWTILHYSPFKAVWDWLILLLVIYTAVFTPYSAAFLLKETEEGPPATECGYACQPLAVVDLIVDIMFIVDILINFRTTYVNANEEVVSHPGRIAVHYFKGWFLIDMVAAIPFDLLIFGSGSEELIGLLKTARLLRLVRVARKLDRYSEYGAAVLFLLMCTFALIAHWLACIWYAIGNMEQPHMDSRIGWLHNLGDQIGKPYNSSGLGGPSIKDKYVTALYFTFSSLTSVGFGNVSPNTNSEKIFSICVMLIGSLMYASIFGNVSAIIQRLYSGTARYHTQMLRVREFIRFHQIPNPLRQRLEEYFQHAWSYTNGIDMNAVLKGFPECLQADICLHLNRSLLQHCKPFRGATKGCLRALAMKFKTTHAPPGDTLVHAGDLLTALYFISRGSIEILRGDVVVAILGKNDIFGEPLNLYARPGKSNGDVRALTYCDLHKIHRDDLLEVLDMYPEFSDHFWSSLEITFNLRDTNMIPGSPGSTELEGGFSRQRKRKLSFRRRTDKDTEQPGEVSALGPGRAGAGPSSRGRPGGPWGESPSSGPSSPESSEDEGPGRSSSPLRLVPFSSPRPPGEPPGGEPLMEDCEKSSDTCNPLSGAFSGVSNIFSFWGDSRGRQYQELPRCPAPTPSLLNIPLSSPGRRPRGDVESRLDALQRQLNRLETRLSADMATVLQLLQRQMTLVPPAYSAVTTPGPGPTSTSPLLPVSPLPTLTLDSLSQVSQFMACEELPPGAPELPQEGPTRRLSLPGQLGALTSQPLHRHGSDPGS
In data set [3] the target is Voltage-gated inwardly rectifying potassium channel KCNH2 (Homo sapiens, UniProt Q12809). The data set can be described thus: Inhibition of hERG. Type of data set: toxicity. In general terms: The hERG channel carries a current that helps repolarise heart muscle cells.
Chain of Voltage-gated inwardly rectifying potassium channel KCNH2 (Q12809 whole entry): as above
The species named for data set [4] is Mus musculus. The experiment in a line: Analgesic activity in PSL mouse model assessed as latency to paw withdrawal. The data set is classed as functional. The note with it: read-out: MED.
A short description of data set [5]: Bioavailability in rat. Particulars: in vivo. The data set is classed as ADME, organism-based.
The nature of data set [6]: Metabolic stability assessed as half life in human liver microsomes. Type of data set: ADME, Microsome.
The test system of data set [7] is Rattus norvegicus. The experiment in a line: Effect on haloperidol catalepsy in po dosed rat assessed as […]. Type of data set: functional. The note with it: read-out: MED.

The term Ki denotes a measure of affinity in units of concentration, obtained from inhibition or displacement. A low value points to tighter binding. Broadly, the inhibition is the relative decrease from the control value, in per cent. One may read the IC50 as the concentration that gives 50% inhibition. A lower IC50 goes with greater potency. Broadly, the bioavailability is dose-corrected exposure relative to a reference, in per cent. Lower therefore signals little systemic uptake. By half-life is commonly meant the time needed for the level to fall by half in the phase considered.

`O=C(NCc1cccc(OCCc2ccccc2)c1)c1ccc(O)cc1` had a Ki in data set [1] of 5.6 nM.
On to `O=C(NC[C@H]1CC[C@@H](CCOc2ccccc2)CC1)c1cn[nH]c1`, for which the Ki in data set [1] came to 4.2 nM. The same compound yielded an inhibition at 10 µM in data set [2] of 36%. The same compound gave an IC50 in data set [3] of more than 30 µM. Besides, the minimal effective dose in data set [4] was 3 mg/kg. Further, the bioavailability in data set [5] was determined as 43%.
`O=C(NC[C@H]1CC[C@@H](COc2ccccc2)CC1)c1ccc(O)cc1` had an inhibitory constant (Ki) in data set [1] of 6.8 nM. For the same compound, the half-life in data set [6] was determined as 2.3 min. For the same compound, in data set [7], the minimal effective dose is 3 mg/kg.
Turning to `O=C(NC[C@H]1CC[C@@H](COc2ccccc2)CC1)c1ccn[nH]1`, the Ki in data set [1] is more than 100 nM.
As for `O=C(NC[C@H]1CC[C@@H](CCOc2ccccc2)CC1)c1cc[nH]c1`, the affinity in data set [1] corresponds to a Ki of 6.8 nM. This counts as single-digit nanomolar.
For `O=C(NC[C@H]1CC[C@@H](CCOc2ccccc2)CC1)c1cc(F)c(O)c(F)c1`, the Ki in data set [1] came to 8.5 nM.
`O=C1CCc2cc(C(=O)NC[C@H]3CC[C@@H](COc4ccccc4)CC3)ccc2N1`: the affinity in data set [1], expressed as Ki, was 18 nM.
Compound `Nc1[nH]ncc1C(=O)NC[C@H]1CC[C@@H](COc2ccccc2)CC1` yielded an inhibition constant Ki in data set [1] of more than 100 nM.
In data set [1], `O=C(NC[C@H]1CC[C@@H](CCOc2ccccc2)CC1)c1ccn[nH]1` yielded a Ki of 8.9 nM. In addition, the half-life in data set [6] is 36 min.
In data set [1], `Nc1n[nH]cc1C(=O)NC[C@H]1CC[C@@H](CCOc2ccccc2)CC1` registered a Ki of 3.7 nM. Besides, the half-life in data set [6] amounted to 59 min.
In data set [1], `O=C(NC[C@H]1CC[C@@H](COc2ccccc2)CC1)c1cn[nH]c1` gave a Ki of 14 nM. In addition, the half-life in data set [6] stood at 44 min.
Turning to `O=C(NC[C@H]1CC[C@@H](CCOc2ccccc2)CC1)c1ccc(=O)[nH]n1`, the Ki in data set [1] was determined as 5.6 nM.
Regarding `O=C1C=CC(C(=O)NC[C@H]2CC[C@@H](COc3ccccc3)CC2)NN1` (stereo partly drawn), the Ki in data set [1] is more than 100 nM.
In data set [1], `O=C1C=CC(C(=O)NC[C@H]2CC[C@@H](CCOc3ccccc3)CC2)NN1` (stereo partly drawn) displayed a Ki of 11 nM.
For `Cc1n[nH]c(C)c1C(=O)NC[C@H]1CC[C@@H](COc2ccccc2)CC1`, the Ki in data set [1] was more than 100 nM.
Turning to `Cc1n[nH]c(C)c1C(=O)NC[C@H]1CC[C@@H](CCOc2ccccc2)CC1`, the Ki in data set [1] was more than 100 nM.
`O=C(NC[C@H]1CC[C@@H](CCOc2ccccc2)CC1)c1ccc2[nH]ncc2c1` displayed an inhibition constant (Ki) in data set [1] of 15 nM.
In data set [1], `O=C(NC[C@H]1CC[C@@H](COc2ccccc2)CC1)c1cc[nH]c1` yielded a Ki of 84 nM.
In data set [1], `O=C(NC[C@H]1CC[C@@H](COc2ccccc2)CC1)c1ccc(=O)[nH]n1` registered a Ki of more than 100 nM.
Regarding `O=C(NCc1cccc(C(=O)NCc2ccccc2)c1)c1ccc(O)cc1`, the Ki in data set [1] stood at 15 nM. This compound also registered a half-inhibitory concentration (IC50) in data set [3] of more than 30 µM.
In data set [1], `O=C1CCc2cc(C(=O)NC[C@H]3CC[C@@H](CCOc4ccccc4)CC3)ccc2N1` had a Ki of 5.9 nM. This counts as single-digit nanomolar.
In data set [1], `O=C(NC[C@H]1CC[C@@H](CCOc2ccccc2)CC1)c1ccc(O)cc1` showed an inhibition constant (Ki) of 20 nM.
Take `O=C(NC[C@H]1CC[C@@H](COc2ccccc2)CC1)c1cc(F)c(O)c(F)c1`: in data set [1], the Ki was found to be 12 nM. Compared with the last compound, the Ki is about 1.7-fold lower.
